Reference: patent US12649750B2, “Macrocyclic compounds, compositions, and methods of using thereof” (Sionna Therapeutics Inc., priority 2022, dated 2026)

Molecular target: T1, NBD1 (Homo sapiens, UniProt P13569)
T1 construct: Purified recombinant NBD1 was produced using previously described methods; made in house
Experiment: Aggregation analysis using differential static light scattering (DSLS), thermal stability of NBD1 (ΔTagg)
Format: binding
Settings: ΔTagg versus DMSO control, NBD1 0.2 mg/ml
Method in brief: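 Stabilisation is measured as the shift in aggregation onset of recombinant NBD1 (0.2 mg/ml, 2 mM ATP, 5 mM MgCl2, pH7.6) exposed to compound. Images are taken every 0.5° C. while heating at 1° C. per minute, and the inflection-point Tagg is corrected by the DMSO mean.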

T1 sequence (P13569 423-646 limits assumed): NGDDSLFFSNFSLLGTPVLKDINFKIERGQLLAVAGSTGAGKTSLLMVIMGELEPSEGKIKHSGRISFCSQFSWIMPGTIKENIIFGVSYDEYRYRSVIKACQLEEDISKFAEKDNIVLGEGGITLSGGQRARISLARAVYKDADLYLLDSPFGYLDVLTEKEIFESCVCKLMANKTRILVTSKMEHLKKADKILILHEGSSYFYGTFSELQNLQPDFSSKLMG

**Q.** For `C[C@@H](Cc1cccc([C@@]2(C)CCCC(C)(C)CS(=O)(=O)CCc3c(c(F)cc4[nH]ccc34)S(=O)(=O)c3cccc(c3)-c3nc2nn3C)c1)C(=O)O` [Compound 357, (2S)-3-[3-[(6R)-22-Fluoro-3,6,10,10-tetramethyl-12,12,24,24-tetraoxo-12λ6,24λ6-dithia-3,4,19,30-tetrazapentacyclo[23.3.1.12,5.015,23.016,20]triaconta-1(29),2(30),4,15,17,20,22,25,27-nonaen-6-yl]phenyl]-2-methyl-propanoic Acid], which “DSLS 3D (100 μM ΔT)” value is on record?
**A.** B (a value above 5 °C and less than or equal to 10 °C is marked “B”)

**Q.** Which “DSLS 3D (100 μM ΔT)” value does the source give for `Cn1nc2nc1-c1cc(ccc1F)S(=O)(=O)c1c(F)c(F)c3[nH]ccc3c1CCS(=O)(=O)CC(C)(C)CCC[C@]2(C)c1cccc(CC(C)(C)C(=O)O)c1` [Compound 358, 2,2-Dimethyl-3-[3-[(6R)-21,22,28-trifluoro-3,6,10,10-tetramethyl-12,12,24,24-tetraoxo-12λ6,24λ6-dithia-3,4,19,30-tetrazapentacyclo[23.3.1.12,5.015,23.016,20]triaconta-1(29),2(30),4,15,17,20,22,25,27-nonaen-6-yl]phenyl]propanoic Acid] here?
**A.** A (an ΔTagg value less than or equal to 5 °C is marked “A”)

**Q.** Which “DSLS 3D (100 μM ΔT)” value does the source give for `C[C@@H](Cc1cccc([C@@]2(C)CCCC(C)(C)CS(=O)(=O)CCc3c(c(F)cc4[nH]ncc34)Oc3ccc(F)c(c3)-c3nc2nn3C)c1)C(=O)O` [Compound 359, (2S)-3-[3-[(6R)-22,28-Difluoro-3,6,10,10-tetramethyl-12,12-dioxo-24-oxa-12λ6-thia-3,4,18,19,30-pentazapentacyclo[23.3.1.12,5.015,23.016,20]triaconta-1(29),2(30),4,15,17,20,22,25,27-nonaen-6-yl]phenyl]-2-methyl-propanoic Acid] here?
**A.** B (a value above 5 °C and less than or equal to 10 °C is marked “B”)

**Q.** `CNC1CS(=O)(=O)CC(C)(C)CCC[C@](C)(c2cccc(C[C@@H](C)C(=O)O)c2)c2nc(n(C)n2)-c2cc(ccc2F)Oc2c(F)c(F)c3[nH]ccc3c21` (stereo partly drawn) [Compound 360D, (2R)-2-Methyl-3-[3-[(6R)-21,22,28-trifluoro-3,6,10,10-tetramethyl-14-(methylamino)-12,12-dioxo-24-oxa-12λ6-thia-3,4,19,30-tetrazapentacyclo[23.3.1.12,5.015,23.016,20]triaconta-1(29),2(30),4,15,17,20,22,25,27-nonaen-6-yl]phenyl]propanoic Acid] was tested. Which “DSLS 3D (100 μM ΔT)” value did it give?
**A.** A (an ΔTagg value less than or equal to 5 °C is marked “A”)

**Q.** Which “DSLS 3D (100 μM ΔT)” value does the source give for `Cn1nc2nc1-c1cc(ccc1F)Oc1c(F)c(F)c3[nH]cc(CC(=O)O)c3c1CCS(=O)(=O)CC(C)(C)CCC[C@]2(C)c1ccccc1` [Compound 361, 2-[(6R)-21,22,28-Trifluoro-3,6,10,10-tetramethyl-12,12-dioxo-6-phenyl-24-oxa-12λ6-thia-3,4,19,30-tetrazapentacyclo[23.3.1.12,5.015,23.016,20]triaconta-1(29),2(30),4,15,17,20,22,25,27-nonaen-17-yl]acetic Acid] here?
**A.** A (an ΔTagg value less than or equal to 5 °C is marked “A”)

**Q.** Which “DSLS 3D (100 μM ΔT)” value does the source give for `Cn1nc2nc1-c1cc(ccn1)Sc1c(F)cc3[nH]cc(CC(=O)O)c3c1CCS(=O)(=O)CC(C)(C)CCC[C@]2(C)c1ccccc1` [Compound 362, 2-[(6R)-22-Fluoro-3,6,10,10-tetramethyl-12,12-dioxo-6-phenyl-12λ6,24-dithia-3,4,19,28,30-pentazapentacyclo[23.3.1.12,5.015,23.016,20]triaconta-1(29),2(30),4,15,17,20,22,25,27-nonaen-17-yl]acetic Acid] here?
**A.** A (an ΔTagg value less than or equal to 5 °C is marked “A”)

**Q.** For `Cn1nc2nc1-c1cc(ccn1)Oc1c(F)c(F)c3[nH]cc(CC(=O)O)c3c1CCS(=O)(=O)CC(C)(C)CCC[C@]2(C)c1ccccc1` [Compound 363, 2-[(6R)-21,22-Difluoro-3,6,10,10-tetramethyl-12,12-dioxo-6-phenyl-24-oxa-12λ6-thia-3,4,19,28,30-pentazapentacyclo[23.3.1.12,5.015,23.016,20]triaconta-1(29),2(30),4,15,17,20,22,25,27-nonaen-17-yl]acetic acid], which “DSLS 3D (100 μM ΔT)” value is on record?
**A.** A (an ΔTagg value less than or equal to 5 °C is marked “A”)

**Q.** Which “DSLS 3D (100 μM ΔT)” value does the source give for `Cn1nc2nc1-c1cc(ccn1)Cc1c(F)cc3[nH]cc(CC(=O)O)c3c1CCS(=O)(=O)CC(C)(C)CCC[C@]2(C)c1ccccc1` [Compound 364, 2-[(6R)-22-Fluoro-3,6,10,10-tetramethyl-12,12-dioxo-6-phenyl-12λ6-thia-3,4,19,28,30-pentazapentacyclo[23.3.1.12,5.015,23.016,20]triaconta-1(29),2(30),4,15,17,20,22,25,27-nonaen-17-yl]acetic Acid] here?
**A.** A (an ΔTagg value less than or equal to 5 °C is marked “A”)

**Q.** `Cn1nc2nc1-c1cc(ccn1)S(=O)(=O)c1c(F)cc3[nH]cc(CC(=O)O)c3c1CCS(=O)(=O)CC(C)(C)CCC[C@]2(C)c1ccccc1` [Compound 366, 2-[(6R)-22-Fluoro-3,6,10,10-tetramethyl-12,12,24,24-tetraoxo-6-phenyl-12λ6,24λ6-dithia-3,4,19,28,30-pentazapentacyclo[23.3.1.12,5.015,23.016,20]triaconta-1(29),2(30),4,15,17,20,22,25,27-nonaen-17-yl]acetic acid] was tested. Which “DSLS 3D (100 μM ΔT)” value did it give?
**A.** A (an ΔTagg value less than or equal to 5 °C is marked “A”)

**Q.** For `COc1c(CCC(=O)O)cccc1C1(C)CCCC(C)(C)CS(=O)(=O)CCc2c(c(F)c(F)c3[nH]ccc23)Oc2ccc(F)c(c2)-c2nc1nn2C` (stereo not shown) [Compound 373, 3-[2-Methoxy-3-(21,22,28-trifluoro-3,6,10,10-tetramethyl-12,12-dioxo-24-oxa-12λ6-thia-3,4,19,30-tetrazapentacyclo[23.3.1.12,5.015,23.016,20]triaconta-1(29),2(30),4,15,17,20,22,25,27-nonaen-6-yl)phenyl]propanoic Acid], which “DSLS 3D (100 μM ΔT)” value is on record?
**A.** B (a value above 5 °C and less than or equal to 10 °C is marked “B”)

**Q.** Which “DSLS 3D (100 μM ΔT)” value does the source give for `COC(=O)[C@H](C)Cc1cccc([C@@]2(C)CCCC(C)(C)CS(=O)(=O)CCc3c(c(F)cc4[nH]ccc34)Sc3cc(c(F)cc3O)-c3nc2nn3C)c1` [Compound 376, Methyl (2R)-3-[3-[(6R)-22,28-difluoro-26-hydroxy-3,6,10,10-tetramethyl-12,12-dioxo-12λ6,24-dithia-3,4,19,30-tetrazapentacyclo[23.3.1.12,5.015,23.016,20]triaconta-1(29),2(30),4,15,17,20,22,25,27-nonaen-6-yl]phenyl]-2-methyl-propanoate] here?
**A.** A (an ΔTagg value less than or equal to 5 °C is marked “A”)

**Q.** Which “DSLS 3D (100 μM ΔT)” value does the source give for `C[C@H](Cc1cccc([C@@]2(C)CCCC(C)(C)CS(=O)(=O)CCc3c(c(F)cc4[nH]ccc34)Sc3cc(c(F)cc3N)-c3nc2nn3C)c1)C(=O)O` [Compound 377, (2R)-3-[3-[(6R)-26-Amino-22,28-difluoro-3,6,10,10-tetramethyl-12,12-dioxo-12λ6,24-dithia-3,4,19,30-tetrazapentacyclo[23.3.1.12,5.015,23.016,20]triaconta-1(29),2(30),4,15,17,20,22,25,27-nonaen-6-yl]phenyl]-2-methyl-propanoic Acid] here?
**A.** B (a value above 5 °C and less than or equal to 10 °C is marked “B”)

**Q.** `C[C@H](Cc1cccc([C@@]2(C)CCCC(C)(C)CS(=O)(=O)CCc3c(c(F)cc4[nH]ccc34)Sc3cc(c(F)cc3C(=O)O)-c3nc2nn3C)c1)C(=O)O` [Compound 378, (6R)-6-[3-[(2R)-2-Carboxypropyl]phenyl]-22,28-difluoro-3,6,10,10-tetramethyl-12,12-dioxo-12λ6,24-dithia-3,4,19,30-tetrazapentacyclo[23.3.1.12,5.015,23.016,20]triaconta-1(29),2(30),4,15,17,20,22,25,27-nonaene-26-carboxylic Acid] was tested. Which “DSLS 3D (100 μM ΔT)” value did it give?
**A.** A (an ΔTagg value less than or equal to 5 °C is marked “A”)

**Q.** With `C[C@H](Cc1cccc([C@@]2(C)CCCC(C)(C)CS(=O)(=O)CCc3c(c(F)cc4[nH]ccc34)S(=O)(=O)c3cc(c(F)cc3N)-c3nc2nn3C)c1)C(=O)O` [Compound 379C, (2R)-3-[3-[(6R)-26-Amino-22,28-difluoro-3,6,10,10-tetramethyl-12,12,24,24-tetraoxo-12λ6,24λ6-dithia-3,4,19,30-tetrazapentacyclo[23.3.1.12,5.015,23.016,20]triaconta-1(29),2(30),4,15,17,20,22,25,27-nonaen-6-yl]phenyl]-2-methyl-propanoic acid] as the compound, how does the “DSLS 3D (100 μM ΔT)” value read?
**A.** A (an ΔTagg value less than or equal to 5 °C is marked “A”)

**Q.** For `C[C@@H](Cc1cccc([C@@]2(C)CCCC(C)(C)CS(=O)(=O)CCc3c(c(F)c(F)c4[nH]ncc34)Oc3ccc(F)c(c3)-c3nc2nn3C)c1)C(=O)O` [Compound 382, (2S)-2-Methyl-3-[3-[(6R)-21,22,28-trifluoro-3,6,10,10-tetramethyl-12,12-dioxo-24-oxa-12λ6-thia-3,4,18,19,30-pentazapentacyclo[23.3.1.12,5.015,23.016,20]triaconta-1(29),2(30),4,15,17,20,22,25,27-nonaen-6-yl]phenyl]propanoic Acid], which “DSLS 3D (100 μM ΔT)” value is on record?
**A.** B (a value above 5 °C and less than or equal to 10 °C is marked “B”)

**Q.** Which “DSLS 3D (100 μM ΔT)” value does the source give for `Cc1onc(NC(=O)[C@H](C)Cc2cccc([C@@]3(C)CCCC(C)(C)CS(=O)(=O)CCc4c(c(F)c(F)c5[nH]ccc45)Oc4ccc(F)c(c4)-c4nc3nn4C)c2)c1C` [Compound 384, (2R)—N-(4,5-Dimethylisoxazol-3-yl)-2-methyl-3-[3-[(6R)-21,22,28-trifluoro-3,6,10,10-tetramethyl-12,12-dioxo-24-oxa-12λ6-thia-3,4,19,30-tetrazapentacyclo[23.3.1.12,5.015,23.016,20]triaconta-1(29),2(30),4,15,17,20,22,25,27-nonaen-6-yl]phenyl]propenamide] here?
**A.** A (an ΔTagg value less than or equal to 5 °C is marked “A”)
